Experimental data taken from patent US12398117B2, “Heteroarylamidopyridinol derivative and pharmaceutical composition comprising same as active ingredient for prevention or treatment of autoimmune disease” (INNOVO THERAPEUTICS INC., priority 2019, dated 2025).

Tests used:
[1] = tested on: DSS-induced chronic enteritis mouse model; experiment: Oral efficacy in DSS-induced chronic enteritis mouse model; assay type: in vivo, C57BL/6 mice; conditions: for Morphological observation of colon (length, macroscopic symptoms, adhesions, congestion): DSS mouse, sulfasalazine 300 mg/kg, tofacitinib 30 mg/kg, FIG. 2C; for Body weight recovery rate (%) / Intestinal weight recovery rate (%): chronic enteritis (DSS-water-DSS, total 35 days), mouse
Method: (§1) C57BL/6 mice aged 7-8 weeks were purchased from OrientBio (Korea), stabilized with general solid feed for 7 days, and then used in this experiment. Feed and water were freely supplied during the experiment period, and the temperature of the breeding room was maintained at 25±1° C. and the relative humidity at 50±10%. Lighting management was controlled in a 12-hour light-dark cycle by an automatic lighting controller.
(§2) Enteritis was induced in mice by allowing them to freely ingest drinking water containing 2% DSS salt (M.W. 36,000˜50,000, MP Biomedicals, LLC, OH, USA). For the chronic enteritis model, DSS was administered using a schedule of DSS administration for the first 7 days, administration of normal drinking water for 14 days, repeated administration of DSS for 7 days from the 21st day, and administration of normal drinking water for 7 days. The drug was administered once a day, 6 days a week from the first day of DSS treatment (FIG. 2A). […] In order to measure the dose-dependent therapeutic effect of the drug in the acute enteritis model, DSS was administered for 5 days to induce enteritis, and then the drug was administered for 14 days to measure the degree of recovery and treatment of enteritis (FIG. 3A). The drug was administered orally once daily for […] at a fixed time.
(§3) Changes in body weight of each mouse were observed during the DSS and drug administration using a digital mass meter.
(§4) The colon of the mouse was extracted, and the length and weight from the anus to the cecum were measured.
(§5) Tissue staining was performed in the same manner as in the case of hematoxylin/eosin staining of the rat colon tissue, and scoring indexes of mucosal damage and recovery were applied in the same way.

[2] = tested on: DSS-induced acute enteritis mouse model; experiment: Oral efficacy in DSS-induced acute enteritis mouse model; assay type: in vivo, C57BL/6 mice; conditions: acute enteritis (DSS), mouse
Method: as §1, §2, §3, §4
The degree of neutrophil infiltration in the tissue was measured by the amount of MPO, a neutrophil marker enzyme. The colon tissue with a size of 1 cm was washed with cold PBS and weighed, to which a lysis buffer (pH7.4, 200 mM NaCl, 5 mM EDTA, 10 mM tris, 10% glycerin, 1 mM PMSF, 1 μg/mL leupeptin and 28 μg/mL aprotinin) was added (500 μL of per 10 mg of tissue weight), and then homogenized using Bead Blaster® D2400 homogenizer (Benchmark Scientific, NJ, USA). […] (HK210, Hycult Biotechnology, Netherlands). The supernatant was added to a 96 well plate (100 μL/well) coated with an anti-mouse MPO antibody, and incubated for 1 hour at room temperature, followed by washing 3 times with a washing buffer. A reconstituted tracer was added to the plate (100 μL/well), which was reacted at room temperature for 1 hour, washed 3 times, and then 100 μL of streptavidin-peroxidase conjugate was added to each well of the plate. The plate was reacted at room temperature for 1 hour, washed, and 100 μl of TMB substrate solution was added to each well of the plate, followed by reaction for 30 minutes. The reaction was terminated by adding 100 μL of a stop solution to each well of the plate, and absorbance was measured at 450 nm. MPO activity means the amount of 1 μM […] at 25° C. for 1 minute. This was calculated as the amount of MPO contained in 1 mL of the colon tissue homogenate.
as §5

[3] = tested on: TNBS-induced inflammatory bowel disease rat model; experiment: Oral efficacy in TNBS-induced inflammatory bowel disease rat model; assay type: in vivo, Sprague Dawley rats
Method: as §1, with “Sprague Dawley rats aged” for “C57BL/6 mice aged”, “for 3” for “for 7”
After anesthetizing rats that had been fasted for 24 hours with diethyl ether, 0.8 mL of 5% TNBS diluted with 50v/v % ethanol was slowly injected into the lumen of the colon using a 1 mL syringe connected to a polyethylene catheter, and then, the rats were left standing for 60 seconds in an inverted position in order to prevent 5% TNBS from leaking into the anus. For the control group, only vehicle [50v/v % ethanol] was injected in the same manner as in the other groups (Thapa et al., 2008).
In order to investigate the effect of the drug, the drug was administered at a constant time every day for 5 days from the day after the TNBS treatment.
Changes in body weight of each rat were observed from the fasting stage to the TNBS administration and drug administration process using a digital mass meter.
The colon of the rat was extracted, and the tissue 5-6 cm away from the anus was cut into a length of 1 cm, and the weight of the tissue was measured.
The weighed rat tissues were fixed with 4% paraformaldehyde solution, and then transferred to 30% sucrose solution. When the tissues subside, they were taken out and cut into […] thick using a cryomicrotome (Microm HM 450, Thermo Fisher Scientific, Germany) and stored in a cryopreservation solution. After washing the tissue section with KPBS, the tissue section was attached to a slide glass, dried, and then stained with hematoxylin & Eosin and observed under a microscope.

[4] = tested on: collagen-induced rheumatoid arthritis animal model; experiment: Oral efficacy in collagen-induced rheumatoid arthritis (CIA) mouse model; assay type: in vivo, DBA/1J mice; conditions: oral, up to 35 days, FIG. 5A
Method: 12-week-old normal male mice and arthritis-induced DBA/1J mice were purchased from Central Lab. Animal Inc [To induce arthritis, DBA/1J mice were sensitized by injecting a mixed solution of Complete Freund's Adjuvant (CFA; DIFCO, Detroit, MI) and Bovine Type II collagen (1:1, v/v) intradermally at the pinna base at 8 weeks of age, and then, secondary sensitization was performed by intradermal injection at the tail head at 11 weeks of age]. The purchased arthritis mice were acclimatized to the laboratory environment for a week, and then oral administration of the drug was started.
Visual observation of arthritic lesions was performed using the following scores based on a reference (Barnett et al., 1998).
Therefore, the highest score for arthritic lesions was 16 per mouse.
The hind paw thickness, which is one of the pathological indices of rheumatoid arthritis, was measured using a caliper.
The right hind leg of each mouse was extracted, and all skin and muscles were removed, leaving only the bones and joints. The hind leg was fixed in 4% paraformaldehyde solution for 2 days, then immersed in 10% formic acid for 5 days to decalcify, and then immersed in 30% sucrose solution. When the tissue subsided, the articular tissue was cut into […] thick using a cryomicrotome (Microm HM 450, Thermo Fisher Scientific, Germany) and stored in a cryopreservation solution. Staining was performed using the stored tissue sections. After attaching the tissue sections to the slide glass, they were hydrated with 100%, 95%, 70%, and 50% ethanol solutions, and some were stained with safranin and others were stained with hematoxylin/eosin. For safranin staining, the tissue sections were first stained with 0.1% fast green solution, washed with 1% acetic acid solution, and then stained with 1% safranin solution. Thereafter, the tissue sections were dehydrated by immersing in ethanol solutions in the reverse order of hydration, and then preserved in xylene solution and mounting solution, and photographed under a microscope. Hematoxylin/eosin staining was performed in the same manner as in the colon tissue staining. The tissue sections were dehydrated, preserved in xylene solution and mounting solution, and observed under a microscope.
The degree of microscopic tissue damage of the stained articular tissue was measured using the following scores.
After the spleen and draining lymph nodes of the mice were extracted, the number of immune cells was counted. To confirm the distribution of Th1 and Th17 cells, the immune cells obtained from each organ were stimulated using PMA/Ionomycin and Golgi stop.
After staining using an anti-IFN-γ antibody that can identify Th1 cells, an anti-IL-17 antibody that can identify Th17 cells, and an anti-CD8 antibody that can identify cytotoxic T cells, the proportion of inflammatory cells among the total immune cells was confirmed using flow cytometry.

[5] = tested on: adhesion of intestinal epithelial cells (HT-29) and monocytic cells (U937) induced by IL-6; experiment: Inhibition of IL-6-induced adhesion of monocytes and intestinal epithelial cells; assay type: cell-based, human; conditions: Homo sapiens, 3 h; test drug 1 μM; IL-6 10 ng/mL; HT-29/U937; read-out: inhibitory activity (%)
Method: The inhibitory activity test for intestinal epithelial cell-monocyte adhesion by IL-6 was performed using the same method as in the case of TNF-α. HT-29 cells were cultured in a 24-well plate at the density of 2×10^5 cells/cm^2, and the test drug was pretreated in a medium containing 1% FBS and 1% PS for 1 hour. Thereafter, 10 μg/mL of BCECF-AM was treated thereto and reacted at 37° C. for 30 minutes. U937 cells loaded with BCECF and IL-6 (10 ng/mL) were reacted with HT-29 cells previously treated with the test drug at 37° C. for 3 hours. Upon completion of the reaction, the medium was removed, and the culture flask was washed twice with PBS to remove non-adherent U937 cells. In the next step, the cells were lysed by treating with 0.1% Triton X-100 (0.1 M Tris) and reacted at room temperature for 30 minutes. Then, fluorescence was measured and quantified using a fluostar optima microplate reader (BMG Labtechnologies, Germany).

[6] = 300 mg/kg, dose-dependence test (Table 7)
[7] = 30 mg/kg, listed as tofacitinib

In the case of `O=C(O)c1cc(/N=N/c2ccc(S(=O)(=O)Nc3ccccn3)cc2)ccc1O` [Sulfasalazine, reference compound], the “Morphological observation of colon (length, macroscopic symptoms, adhesions, congestion)” value [1] is reported as “significantly suppressed”, the “Body weight recovery rate (%)” value ([1]; 300 mg/kg) is reported as 22.8% and the “Intestinal weight recovery rate (%)” value ([1]; 300 mg/kg) is reported as 66.9%. The “Intestinal weight recovery rate (%)” value ([1]; 300 mg/kg, listed as sulfasalazine) was 67.3%, the “Body weight recovery rate (%)” value ([2]; 300 mg/kg) was 65.9% and the “Intestinal weight recovery rate (%)” value ([2]; 300 mg/kg) was 66.2%. The “Body weight recovery rate (%)” value [3, 6] was 86.6%, the “Intestinal weight recovery rate (%)” value [3, 6] was 69.6% and the “Morphological observation of colon (visual symptoms, adhesions, congestion)” value ([3]; after 5 days of drug administration, sulfasalazine 300 mg/kg, X-09 0.3-10 mg/kg) was “significantly suppressed”. The “Intestinal weight recovery rate (%)” value ([3]; oral 300 mg/kg, 5 days, fixed-dose test (Table 6)) was 69.6%, the “Body weight recovery rate (%)” value ([3]; oral 300 mg/kg, 5 days, fixed-dose test (Table 6), 300 mg/kg) was 86.6% and the “Body weight recovery rate (%)” value ([3]; oral 300 mg/kg, 5 days, fixed-dose test (Table 6), listed as sulfasalazine, 300 mg/kg) was 50.5%.

`C[C@@H]1CCN(C(=O)CC#N)C[C@@H]1N(C)c1ncnc2[nH]ccc12` [Tofacitinib, reference compound] was tested, and the “degree of arthritis (visual observation score)” value [4] was “significantly improved dose dependently”, the “Morphological observation of colon (length, macroscopic symptoms, adhesions, congestion)” value [1] was “significantly suppressed” and the “Body weight recovery rate (%)” value ([1]; 30 mg/kg) was 29.5%. The “Intestinal weight recovery rate (%)” value ([1]; 30 mg/kg) was 68.2%, the “Body weight recovery rate (%)” value [1, 7] was 29.4% and the “Intestinal weight recovery rate (%)” value [1, 7] was 68.8%. For the same molecule, the “Body weight recovery rate (%)” value ([2]; 30 mg/kg) was 80.8%, the “Intestinal weight recovery rate (%)” value ([2]; 30 mg/kg) was 80.9% and the “Body weight recovery rate (%)” value [2, 7] was 80.9%. For the same molecule, the inhibition at 1 µM [5] was 49.1%.
